The source of these data is patent US8084645B2, “4-phenylamino-benzaldoxime derivatives and uses thereof as mitogen-activated protein kinase kinase (MEK) inhibitors” (Chugai Seiyaku Kabushiki Kaisha, priority 2003, dated 2011).

Series [1] relates to Human colon cancer cell line HT-29. The series is described as follows: Determination of the activity of inhibiting cell proliferation (Cell Counting Kit-8). Format: cell-based. As to conditions: HT-29, 96 h, HT29, 2,000 cells/well, incubated four days, read-out: Cell proliferation inhibitory activity (HT29) IC50. As for the experimental part: Human colon cancer cell line HT-29, obtained from American Type Culture Collection (VA, USA), and human non-small cell lung cancer cell line QG56, obtained from Immuno-Biological Laboratories Co., Ltd., were plated at 2,000 cells/well in a 96-well culture plate, and incubated for four days after addition of a MEK inhibitor of a given concentration.

Series [2] in a line: Determination of stability against mouse liver microsomes. As to conditions: mouse liver microsomes 1 mg protein/mL, 2 mM NADPH, pH 7.4, 37 C; read-out: Stability against mouse liver microsome NADPH+ T1/2. Format: in vitro ADME. How it is done:
The enzyme reaction was quenched with three volumes of acetonitrile, and the reaction mixture was centrifuged at 1,500 rpm for ten minutes to provide a supernatant as a sample to be measured. Stability against mouse liver microsomes was measured using HPLC/MS to determine the compounds in the sample.

For series [3], the target named is MEK (Homo sapiens, UniProt Q02750). The series is described as follows: Determination of MEK inhibitory activities (Raf-1 kinase cascade assay, MBP phosphorylation, 33P-ATP).
Source text: The radioisotope used was [γ^33P]-ATP (Amersham Biosciences, K.K.).
Series [4] in a line: Determination of water solubility (equilibrium stirring method). Format: physicochemical. As to conditions: 50 mM phosphate buffer pH 6.5, room temperature (20 C); for solubility at 2 h: aqueous buffer, thermodynamic from solid, read-out: Water solubility (LySA PH 6.5). As for the experimental part: The vessels were sealed, and the contents were sonicated at room temperature (20° C.) for ten minutes, and then stirred with a stirrer for two hours. After reaching solution equilibrium, the solution was separated with a membrane filter, and the solute concentration was determined using HPLC.

Series [5] can be described thus: Determination of stability against human liver microsomes. Format: in vitro ADME. As to conditions: human liver microsomes 1 mg protein/mL, 2 mM NADPH, pH 7.4, 37 C; read-out: Stability against human liver microsome NADPH+ T1/2. As for the experimental part: The enzyme reaction was quenched with three volumes of acetonitrile, and the reaction mixture was centrifuged at 1,500 rpm for ten minutes to provide a supernatant as a sample to be measured. Stability against human liver microsomes was measured using HPLC/MS to determine the compounds in the sample.

Values after ≈ are worked out from the molar mass of the structure shown.

MEK, sequence (Q02750 whole entry): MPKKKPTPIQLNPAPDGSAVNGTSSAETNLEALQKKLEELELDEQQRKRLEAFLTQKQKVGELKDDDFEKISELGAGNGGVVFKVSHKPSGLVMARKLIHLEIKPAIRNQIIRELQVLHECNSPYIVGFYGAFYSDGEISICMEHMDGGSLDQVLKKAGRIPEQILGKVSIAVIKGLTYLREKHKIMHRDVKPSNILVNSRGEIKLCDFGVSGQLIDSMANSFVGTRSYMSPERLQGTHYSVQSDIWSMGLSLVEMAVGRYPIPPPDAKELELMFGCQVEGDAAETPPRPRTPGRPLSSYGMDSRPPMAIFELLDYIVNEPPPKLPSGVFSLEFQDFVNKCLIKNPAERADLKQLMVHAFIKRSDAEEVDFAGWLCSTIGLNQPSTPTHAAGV

As for `CC(C)(O)CO/N=C/c1cc(C(=O)NOCCO)c(Nc2ccc(I)cc2F)c(F)c1F` [Compound 12, (E)-3,4-difluoro-2-(2-fluoro-4-iodophenylamino)-N-(2-hydroxy-ethoxy)-5-[(2-hydroxy-2-methyl-propoxyimino)-methyl]-benzamide], the IC50 is below 19.5 nM in series [1] and 37 nM in series [3]. Moreover, in series [2], the half-life is above 6 h. Moreover, the “Water solubility (LySA PH 6.5)” value in series [4] turned out to be 15 µM.
In the case of `CNC(=O)CCO/N=C/c1cc(C(=O)NOCCO)c(Nc2ccc(I)cc2F)c(F)c1F` [Compound 14, (E)-3,4-difluoro-2-(2-fluoro-4-iodo-phenylamino)-N-(2-hydroxy-ethoxy)-5-[(2-methylcarbamoyl-ethoxyimino)-methyl]-benzamide], the IC50 worked out at 38 nM in series [1] and 9.7 nM in series [3]. Besides, the half-life in series [2] stood at 0.767 h. Also, the solubility at 2 h in series [4] came out at 14 µM (≈ 8.12 µg/mL).
As to `O=C(NOCCO)c1cc(/C=N/OCCN2CCCCC2)c(F)c(F)c1Nc1ccc(I)cc1F` [Compound 17, (E)-3,4-difluoro-2-(2-fluoro-4-iodo-phenylamino)-N-(2-hydroxy-ethoxy)-5-[(2-piperidin-1-yl-ethoxyimino)-methyl]-benzamide], the IC50 is 920 nM in series [1] and 287 nM in series [3]. In addition, in series [2], the half-life was above 6 h. In series [4], the solubility at 2 h was 462 µM (≈ 280 µg/mL).
Take `CNCCO/N=C/c1cc(C(=O)NOCCO)c(Nc2ccc(I)cc2F)c(F)c1F` [Compound 23, (E)-3,4-difluoro-2-(2-fluoro-4-iodo-phenylamino)-N-(2-hydroxy-ethoxy)-5-[(2-methylamino-ethoxyimino)-methyl]-benzamide]: the IC50 in series [1] was 88 nM; in series [3], 85 nM.
As for `O=C(NOCCO)c1cc(/C=N/OCc2cnc[nH]2)c(F)c(F)c1Nc1ccc(I)cc1F` [Compound 29, (E)-3,4-difluoro-2-(2-fluoro-4-iodo-phenylamino)-N-(2-hydroxy-ethoxy)-5-[(3H-imidazol-4-ylmethoxyimino)-methyl]-benzamide], the IC50 came out at 165 nM in series [1] and 576 nM in series [3].
`O=C(NOCCO)c1cc(/C=N/OCc2ccncc2)c(F)c(F)c1Nc1ccc(I)cc1F` [Compound 30, (E)-3,4-difluoro-2-(2-fluoro-4-iodo-phenylamino)-N-(2-hydroxy-ethoxy)-5-[(pyridin-4-ylmethoxyimino)-methyl]-benzamide]: the figures for the IC50 in series [1] and in series [3] were 790 nM and 88 nM, respectively. The half-life in series [2] was above 6 h. The solubility at 2 h in series [4] was below 31.3 µM.
Consider `CO/N=C/c1cc(C(=O)NOCCO)c(Nc2ccc(I)cc2F)c(F)c1F` [Compound 31, (E)-3,4-difluoro-2-(2-fluoro-4-iodo-phenylamino)-N-(2-hydroxy-ethoxy)-5-[methoxyimino-methyl]-benzamide], for which the figures for the IC50 in series [1] and in series [3] were 463 nM and 335 nM, respectively.
The like results for `CC(C)O/N=C/c1cc(C(=O)NOCCO)c(Nc2ccc(I)cc2F)c(F)c1F` [Compound 32, (E)-3,4-difluoro-2-(2-fluoro-4-iodo-phenylamino)-N-(2-hydroxy-ethoxy)-5-[isopropoxyimino-methyl]-benzamide] were, in that order, 84 nM and 1250 nM.
On to `CC(C)(O)CCO/N=C/c1cc(C(=O)NOCCO)c(Nc2ccc(I)cc2F)c(F)c1F` [Compound 33, (E)-3,4-difluoro-2-(2-fluoro-4-iodo-phenylamino)-N-(2-hydroxy-ethoxy)-5-[(3-hydroxy-3-methyl-butoxyimino)-methyl]-benzamide], for which the IC50 stood at 275 nM in series [1] and 37.5 nM in series [3]. The solubility at 2 h in series [4] is below 7.8 µM.
As for `CC(C)(CO)CO/N=C/c1cc(C(=O)NOCCO)c(Nc2ccc(I)cc2F)c(F)c1F` [Compound 34, (E)-3,4-difluoro-2-(2-fluoro-4-iodo-phenylamino)-5-[(E)-(3-hydroxy-2,2-dimethyl-propoxyimino)-methyl]-N-(2-hydroxy-ethoxy)-benzamide], the results for the IC50 in series [1] and in series [3] were 143 nM and 69 nM, respectively. In addition, the solubility at 2 h in series [4] was below 7.8 µM.
In the case of `O=C(NOCCO)c1cc(/C=N/OCC2(CO)CC2)c(F)c(F)c1Nc1ccc(I)cc1F` [Compound 35, (E)-3,4-difluoro-2-(2-fluoro-4-iodo-phenylamino)-N-(2-hydroxy-ethoxy)-5-[(1-hydroxymethyl-cyclopropylmethoxyimino)-methyl]-benzamide], the IC50 in series [1] was 203 nM; in series [3] it was 30.4 nM. For the same molecule, the solubility at 2 h in series [4] is below 7.8 µM.
The like results for `O=C(NOCCO)c1cc(/C=N/OCCCCO)c(F)c(F)c1Nc1ccc(I)cc1F` [Compound 36, (E)-3,4-difluoro-2-(2-fluoro-4-iodo-phenylamino)-5-[(4-hydroxy-butoxyimino)-methyl]-N-(2-hydroxy-ethoxy)-benzamide] were, in that order, 365 nM, 45 nM and below 7.8 µM.
On to `COC(C)(C)CCO/N=C/c1cc(C(=O)NOCCO)c(Nc2ccc(I)cc2F)c(F)c1F` [Compound 37, (E)-3,4-difluoro-2-(2-fluoro-4-iodo-phenylamino)-N-(2-hydroxy-ethoxy)-5-[(3-methoxy-3-methyl-butoxyimino)-methyl]-benzamide], for which the IC50 in series [1] was 600 nM; in series [3], 287 nM.
For `COCCO/N=C/c1cc(C(=O)NOCCO)c(Nc2ccc(I)cc2F)c(F)c1F` [Compound 38, (E)-3,4-difluoro-2-(2-fluoro-4-iodo-phenylamino)-N-(2-hydroxy-ethoxy)-5-[(2-methoxy-ethoxyimino)-methyl]-benzamide], the IC50 in series [1] is 476 nM; in series [3], 395 nM.
As for `CSCCO/N=C/c1cc(C(=O)NOCCO)c(Nc2ccc(I)cc2F)c(F)c1F` [Compound 39, (E)-3,4-difluoro-2-(2-fluoro-4-iodo-phenylamino)-N-(2-hydroxy-ethoxy)-5-[(2-methylsulfanyl-ethoxyimino)-methyl]-benzamide], the figures for the IC50 in series [1] and in series [3] were 114 nM and 232 nM, respectively. Moreover, the solubility at 2 h in series [4] is below 7.8 µM.
As for `CS(=O)(=O)CCO/N=C/c1cc(C(=O)NOCCO)c(Nc2ccc(I)cc2F)c(F)c1F` [Compound 40, (E)-3,4-difluoro-2-(2-fluoro-4-iodo-phenylamino)-N-(2-hydroxy-ethoxy)-5-[(2-methanesulfonyl-ethoxyimino)-methyl]-benzamide], the IC50 in series [1] amounted to 27 nM; in series [3], 67 nM. Also, the half-life in series [5] is 1.49 h; in series [2], above 6 h.
In the case of `O=C(NOCCO)c1cc(/C=N/OCCOCCO)c(F)c(F)c1Nc1ccc(I)cc1F` [Compound 46, (E)-3,4-difluoro-2-(2-fluoro-4-iodo-phenylamino)-N-(2-hydroxy-ethoxy)-5-{[2-(2-hydroxy-ethoxy)-ethoxyimino]-methyl}-benzamide], the figures for the IC50 in series [1] and in series [3] were 103 nM and 107 nM, respectively.
Turning to `CC(C)(O)CO/N=C\c1cc(C(=O)NOCCO)c(Nc2ccc(I)cc2F)c(F)c1F` [Compound 51, (Z)-3,4-Difluoro-2-(2-fluoro-4-iodo-phenylamino)-N-(2-hydroxy-ethoxy)-5-[(2-hydroxy-2-methyl-propoxyimino)-methyl]-benzamide], the IC50 in series [1] stood at 6 nM; in series [3] it was 21 nM. The solubility at 2 h in series [4] was below 7.8 µM.
With `CS(=O)(=O)CCO/N=C\c1cc(C(=O)NOCCO)c(Nc2ccc(I)cc2F)c(F)c1F` [Compound 53, (Z)-3,4-Difluoro-2-(2-fluoro-4-iodo-phenylamino)-N-(2-hydroxy-ethoxy)-5-[(2-methanesulfonyl-ethoxyimino)-methyl]-benzamide], the IC50 in series [1] amounted to 1.9 nM; in series [3], 17 nM. In addition, the solubility at 2 h in series [4] was below 7.8 µM.
As for `O=C(NOCCO)c1cc(/C=N\OCCN2CCNC2=O)c(F)c(F)c1Nc1ccc(I)cc1F` [Compound 59, (Z)-3,4-difluoro-2-(2-fluoro-4-iodo-phenylamino)-N-(2-hydroxy-ethoxy)-5-{[2-(2-oxo-imidazolidin-1-yl)-ethoxyimino]-methyl}-benzamide], the figures for the IC50 in series [1] and in series [3] were 17 nM and 50 nM, respectively. In series [4], the solubility at 2 h came out at 69 µM (≈ 41.9 µg/mL).
`O=C(NOCCO)c1cc(/C=N\OCCN2CCCC2=O)c(F)c(F)c1Nc1ccc(I)cc1F` [Compound 60, (Z)-3,4-difluoro-2-(2-fluoro-4-iodo-phenylamino)-N-(2-hydroxy-ethoxy)-5-{[2-(2-oxo-pyrrolidin-1-yl)-ethoxyimino]-methyl}-benzamide]: the IC50 stood at 20 nM in series [1] and 78 nM in series [3].
